From patent US4652551A, “Renin inhibiting compounds” (Abbott Laboratories, priority 1985, dated 1987)

Target: T1, human renal renin (Homo sapiens, UniProt P00797)
T1 construct: human renal renin, free from acid proteolytic activity; from tissue; host or cells: human kidney (from the word 'renal')
T1 sequence (P00797 67-406): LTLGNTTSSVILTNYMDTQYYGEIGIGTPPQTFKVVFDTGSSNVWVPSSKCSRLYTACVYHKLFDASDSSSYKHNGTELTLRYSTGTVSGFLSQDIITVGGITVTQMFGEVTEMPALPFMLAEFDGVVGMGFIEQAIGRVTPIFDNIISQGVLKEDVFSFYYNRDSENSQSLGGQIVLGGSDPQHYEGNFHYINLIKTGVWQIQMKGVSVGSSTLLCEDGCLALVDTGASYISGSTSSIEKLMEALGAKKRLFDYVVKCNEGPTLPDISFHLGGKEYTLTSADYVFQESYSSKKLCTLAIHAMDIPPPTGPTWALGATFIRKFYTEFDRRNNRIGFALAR
Experiment: In vitro inhibition of human renal renin (angiotensin I formed, measured by radioimmunoassay)
Format: biochemical
Conditions: at 10^-5 M compound; human renin substrate (angiotensinogen), 37° C., pH 6.0
Description: At the end of the incubation, the amount of angiotensin I formed is measured by radioimmunoassay and the present inhibition of renin is calculated.

Going from CC(C)CC(NC(=O)C(C)NC(=O)C(Cc1ccccc1)NC(=O)OC(C)(C)C)C(O)CCc1ccccc1 (stereo not drawn) [Example 1C, Boc-Phe-Ala amide of 4-amino-3-hydroxy-6-methyl-1-phenylheptane] to CC(C)CCC(O)C(CC(C)C)NC(=O)C(C)NC(=O)C(Cc1ccccc1)NC(=O)OC(C)(C)C (stereo not drawn) [Example 2C, Boc-Phe-Ala amide of 4-amino-2,8-dimethyl-5-hydroxynonane], the Inhibition rises from 35% to 85%.

Compared with CC(C)CCC(O)C(CC(C)C)NC(=O)C(Cc1cnc[nH]1)NC(=O)C(Cc1ccccc1)NC(=O)OC(C)(C)C (stereo not drawn) [Example 3, Boc-Phe-His amide of 4-amino-2,8-dimethyl-5-hydroxynonane], C=CCC(O)C(CC(C)C)NC(=O)C(C)NC(=O)C(Cc1ccccc1)NC(=O)OC(C)(C)C (stereo not drawn) [Example 4C, Boc-Phe-Ala amide of 5-amino-4-hydroxy-7-methyl-1-octene] is lower in Inhibition: 89% for the first, 48% for the second.

Work on C=CC(C)(C)C(O)C(CC(C)C)NC(=O)C(C)NC(=O)C(Cc1ccccc1)NC(=O)OC(C)(C)C (stereo not drawn) [Example 5C, Boc-Phe-Ala amide of 5-amino-4-hyroxy-3,3,7-trimethyl-1-octene] yielded an Inhibition of 7%.

Same assay, conditions: at 10^-8 M compound; human renin substrate (angiotensinogen), 37° C., pH 6.0

With CC(C)CCC(O)C(CC1CCCCC1)NC(=O)C(Cc1cnc[nH]1)NC(=O)C(Cc1ccccc1)NC(=O)OC(C)(C)C (stereo not drawn) [Example 6C, Boc-Phe-His Amide of 2-Amino-1-cyclohexyl-3-hydroxy-6-methylheptane] the Inhibition was 47%.
